Values quoted from earlier work as cited in US8552051B2 (H. L. Hall & Sons Limited, priority 2009, dated 2013).

Tests used:
[1] = system: PDE4; settings: Napoletano, M. et al. 2001
[2] = molecular target: 5-HT uptake (Homo sapiens, UniProt P31645); settings: U.S. Pat. No. 6,288,104
Sequence of 5-HT uptake (P31645 whole entry): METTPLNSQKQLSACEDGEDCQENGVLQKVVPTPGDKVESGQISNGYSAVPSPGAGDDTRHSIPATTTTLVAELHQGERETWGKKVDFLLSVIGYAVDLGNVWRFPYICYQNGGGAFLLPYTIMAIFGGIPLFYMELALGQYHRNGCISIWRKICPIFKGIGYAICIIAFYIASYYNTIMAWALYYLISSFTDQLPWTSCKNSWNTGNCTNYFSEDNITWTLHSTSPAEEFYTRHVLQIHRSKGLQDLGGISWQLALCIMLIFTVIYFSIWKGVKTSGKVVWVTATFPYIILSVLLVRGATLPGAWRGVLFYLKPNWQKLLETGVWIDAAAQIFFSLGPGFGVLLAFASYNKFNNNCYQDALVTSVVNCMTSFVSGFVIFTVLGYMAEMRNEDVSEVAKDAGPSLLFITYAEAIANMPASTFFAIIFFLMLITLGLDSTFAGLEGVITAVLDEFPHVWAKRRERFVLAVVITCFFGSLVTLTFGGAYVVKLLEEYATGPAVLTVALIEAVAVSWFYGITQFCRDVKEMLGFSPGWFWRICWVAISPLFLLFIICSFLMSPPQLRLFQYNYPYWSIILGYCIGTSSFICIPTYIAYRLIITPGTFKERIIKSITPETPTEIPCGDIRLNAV

Row | Compound | PDE4 inhibition, result in words [1] | 5-HT uptake inhibitory activity, result in words [2]
1 | COc1ccc(C23CCC(=O)CC2N(C)CC3)cc1OC.Cl (centres unmarked) [Mesembrine hydrochloride] | weak PDE4 inhibitor | 
2 | COc1ccc(C23C=CC(O)CC2N(C)CC3)cc1OC (centres unmarked) [mesembrenol] |  | potent 5-HT uptake inhibitory activity
